This is an account of results in patent publication US20090180956A1, “DIAGNOSTIC FOR EVALUATING GASTRIC EVACUATION FUNCTION AND/OR SMALL INTESTINAL ABSORPTION FUNCTION” (priority 2006, published 2009).

For series [1] the following is noted: 4 mg/ml/kg femoral vein.
Method: (§2) Briefly, STZ was administered to 2-day postnatal rats subcutaneously at a dose of 90 mg/kg. STZ was dissolved in citrate buffer (pH 4.5) in advance, and administration was completed within 5 minutes after the dissolving. Two days thereafter, a blood sample was collected from the heart and subjected to measurement of casual plasma glucose with Terumo Mediace (blood glucose measuring set). Individuals showing a level of 275 mg/dl or more were selected.
(§3) The time course of the increase ratio of ^13C concentration (Δ^13C (‰)) in exhaled CO2 after administration was examined for 20 minutes, and plotted every 5 minutes.
The conditions of series [2]: 2 mg/ml/kg into the duodenum. As for the experimental part: (§1) Briefly, the breath was collected at a rate of about 100 to 300 ml/min using a stroke pump (Variable Stroke Pump VS-500; Shibata Kagaku Kogyo), and the CO2 concentration therein was maintained at about 3%. A Perma Pure Drier (MD-050-12P; Perma Pure INC.) was set between the rat holder and the stroke pump to remove moisture from the breath. When the CO2 concentration was stabilized, the rat under anesthesia was subjected to a laparotomy. After ligation of the pylorus, [1,4-^13C]-succinic acid solution was injected into the duodenum with an injection syringe (1 ml) to thereby achieve administration into the duodenum. A breath sample ([…]) collected with the syringe was sealed in a vacuum vial (10 ml) and subjected to automated analysis by GC-MS (Breath MAT) [FinniganMAT]. Δ^13C (‰) was calculated from δ^13C values which are ^13C values of the breath sample (i.e. differences from the standard substance PDB) using the following formula.
Falling out of small intestinal villi was induced in Wistar male rats (9 week-old; n=4; Nippon Charles River) by repeatedly injecting injectable methotrexate (MTX; Takeda Chemical Industries) dissolved in physiological saline between the back and the skull subcutaneously at 2.5 mg/kg/day (see J. Nutr. Vol. 126, p. 2519 (1996); Scand. J. Gastroenterol. Vol. 39 p. 1015 (2004)). The conditions of the repeated administration were 3 day administration, 2 day interval and 3 day administration (total administration period: 6 days) (MTX administration group; n=4). Non-administration group (n=2) was also tested as control group.
On day 9 after the start of MTX administration, [1,4-^13C]-succinic acid (ICON) was administered into the duodenum of overnight-fasted rats under anesthesia at 2 mg/ml/kg to perform a breath test.

The conditions of series [3]: 2 mg/ml/kg into the duodenum. On the procedure: Overnight-fasted Wistar male rats (8 week-old; Nippon Charles River) were subjected to a laparotomy under anesthesia and treated as follows: (1) ligated at 3 cm from the pylorus (n=1), (2) ligated at 6 cm from the pylorus (n=1), and (3) not ligated (no treatment) (n=2).
[1,4-^13C]-succinic acid (ICON) was administered into the duodenum upstream of the ligation at 2 mg/ml/kg. The breath after the administration was collected.
as §1
Δ^13C (‰)=(δ^13C)t min−(δ^13 C) 0 min (Formula 1)
• Apparatus: Breath MAT plus (Finnigan) • Carrier gas: He • Measured ions: m/z=44, 45, 46
This is another data set of the same source.

Series [4] is described as follows: 13C-labeled sodium acetate breath test, diabetic model rats (nSTZ group) versus control group. As to conditions: 10 mg/ml/kg femoral vein.
Method: as §2, §3
The conditions of series [5]: rat, in vivo, 2000 mg/kg; cited from earlier work.

Read-outs that look alike come from different tables or passages of the source.

In the case of `O=[13C](O)CC[13C](=O)O` [[1,4-^13C]-succinic acid], in series [1] (20 minutes breath test), the “difference in Δ13C between control group and nSTZ group” value is “no difference was observed”. The “increase ratio of 13C concentration (Δ13C) in exhaled CO2” value (from here on “increase ratio … (Δ13C) in exhaled CO2”) in series [1] (control group, at 5 minutes) is listed as 193±20 ‰; in series [1] (control group, at 20 minutes) it was 99±4 ‰; in series [1] (nSTZ group, at 5 minutes), 202±28 ‰; in series [1] (nSTZ group, at 20 minutes), 93±4 ‰; in series [2] (MTX administration group, at 15 minutes), 68±37 ‰; in series [2] (control group (MTX non-administration), at 10 minutes), 154 ‰. The “increase ratio … (Δ13C) in exhaled CO2” value was 81 ‰ in series [2] (control group (MTX non-administration), at 20 minutes); 130 ‰ in series [3] (not ligated rats, at 6 minutes); 95 ‰ in series [3] (not ligated rats, at 15 minutes); 14 ‰ in series [3] (rat ligated at 3 cm from the pylorus, at 4 minutes); 30 ‰ in series [3] (rat ligated at 3 cm from the pylorus, at 6 minutes); 71 ‰ in series [3] (rat ligated at 3 cm from the pylorus, at 16 minutes). Also, the “increase ratio … (Δ13C) in exhaled CO2” value in series [3] (rat ligated at 6 cm from the pylorus, at 4 minutes) is 33 ‰; in series [3] (rat ligated at 6 cm from the pylorus, at 6 minutes), 57 ‰; in series [3] (rat ligated at 6 cm from the pylorus, at 16 minutes), 96 ‰.

Consider `C[13C](=O)[O-].[Na+]` [[1-^13C]-sodium acetate], for which the “increase ratio … (Δ13C) in exhaled CO2” value in series [4] (control group, at 5 minutes) is given as 154±11 ‰; in series [4] (control group, at 20 minutes), 153±5 ‰; in series [4] (nSTZ group, at 5 minutes), 214±30 ‰; in series [4] (nSTZ group, at 20 minutes), 133±2 ‰. The “difference in Δ13C between control group and nSTZ group” value in series [4] (values at 5 minutes and at 20 minutes) was “Significant difference (p<0.005)”.

Consider `O=C(O)CCC(=O)O` [disodium succinate hexahydrate], for which the “abnormalities in single administration toxicity test” value in series [5] is listed as “does not cause abnormalities”.
